Data published in patent US20090233942A1, “Genetic markers associated with response to antidepressants” (priority 2008, published 2009).

Test system: adult patients diagnosed with MDD
Experiment: Eight-week randomized, double-blind, placebo-controlled study: association of sequenced gene markers (Tables 1-17) with vilazodone response as change of MADRS
Type: in vivo, human
Conditions: mean MADRS decrease
Source text: There was a wide range of inter-individual variability in response to vilazodone as well as to placebo and the active comparators. This variability may be partially due to genetic differences among the individuals treated. This example illustrates a randomized, double-blind, placebo-controlled, multicenter, eight-week study designed to discover genetic markers of response to vilazodone in adult patients diagnosed with MDD by the DSM-IV-TR criteria. Patients must have met all of the following inclusion criteria to be considered for enrollment in the study: (1) 18-65 years of age; (2) diagnosis of MDD, single episode or recurrent, according to DSM-IV-TR (296.2/296.3) with a current Major Depressive Episode of less than one year's duration with a minimum duration of at least 4 weeks; (3) HAM-D score≧22 on the first 17 items of the 21-item HAM-D at screening and baseline visits; (4) HAM-D item 1 (depressed mood) score≧2 at the screening visit and the baseline visit; (5) provision of written informed consent to participate; and (6) ability to speak, read and understand English and to respond to questions and follow simple instructions.
Following randomization into vilazodone and placebo groups, patients began the forced titration schedule. Patients received 10 mg qd until Visit 3 (approximately Day 7). At Visit 3 patients received 20 mg qd until Visit 4 (approximately Day 14). At Visit 4 patients received the target dose of 40 mg qd (approximately Day 15). A total of 152 patients completed the vilazodone arm, while 154 patients completed the placebo arm.
This example illustrates genotyping of the study group for the ACE, ATP5C3, BCL2L1, CYP2C9, DRD3, FOS, DTNBP1, GABRG3, GRIA4, LAMA4, MAPK1, NPY1R, OPRD1, OPRM1, PER3, PLCB1, and PSMD1 polymorphic sites selected by the inventors herein for analysis. Genomic DNA was isolated from blood obtained from each individual and amplified target regions containing the polymorphic sites in Tables A-21 to A-37 (Appendix A) were sequenced to determine the genotypes at these polymorphic sites. Tailed (Universal M13 Forward and Reverse) PCR primers were designed using the sequence of SEQ ID NO:1 for ACE, SEQ ID NO:2 for ATP5C3, SEQ ID NO:3 for BCL2L1, SEQ ID NO:4 for CYP2C9, SEQ ID NO:5 for DRD3, SEQ ID NO:6 for FOS, SEQ ID NO:7 for DTNBP1, SEQ ID NO:8 for GABRG3, SEQ ID NO:9 for GRIA4, SEQ ID NO:10 for LAMA4, SEQ ID NO:11 for MAPK1, SEQ ID NO:12 for NPY1R, SEQ ID NO:13 for OPRD1, SEQ ID NO:14 for OPRM1, SEQ ID NO:15 for PER3, SEQ ID NO:16 for PLCB1, and SEQ ID NO:17 for PSMD1. Amplified PCR products were sequenced using Applied Biosystems' Big Dye® Terminator v 3.1 cycle sequencing kit according to manufacturer's instructions. The reaction products were then electrophoresed using an Applied Biosystems 3700 or 3730xl DNA analyzer. Polymorphisms were identified using the Polyphred program, and confirmed by visual inspection.
Haplotypes were estimated from the unphased genotypes using a computer-implemented algorithm for assigning haplotypes to unrelated individuals in a population sample, essentially as described in WO 01/80156. In this method, haplotypes are assigned directly from individuals who are homozygous at all sites or heterozygous at no more than one of the variable sites. This list of haplotypes is then used to deconvolute the unphased genotypes in the remaining (multiply heterozygous) individuals.
This example illustrates analysis of the markers in Tables A-1 to A-17 (Appendix A) for association with vilazodone response. A proprietary algorithm was used as a tool for finding associations between markers and outcomes. The clinical outcomes were improvement in disease over eight weeks of treatment with vilazodone as measured by the MADRS scale. A linear model was first fitted on the covariates, which were treatment center, race, ethnicity, and baseline values. […]

[1] = PLCB1 marker 54, carriers vs non-carriers
[2] = PLCB1 marker 55, carriers vs non-carriers
[3] = PLCB1 marker 56, carriers vs non-carriers
[4] = PLCB1 marker 57, carriers vs non-carriers
[5] = PLCB1 marker 58, carriers vs non-carriers
[6] = PLCB1 marker 59, carriers vs non-carriers
[7] = PLCB1 marker 60, carriers vs non-carriers
[8] = PLCB1 marker 61, carriers vs non-carriers
[9] = PLCB1 marker 62, carriers vs non-carriers
[10] = PLCB1 marker 63, carriers vs non-carriers
[11] = PLCB1 marker 64, carriers vs non-carriers
[12] = PLCB1 marker 65, carriers vs non-carriers
[13] = PLCB1 marker 66, carriers vs non-carriers
[14] = PLCB1 marker 67, carriers vs non-carriers
[15] = PLCB1 marker 68, carriers vs non-carriers
[16] = PLCB1 marker 96, carriers vs non-carriers
[17] = PLCB1 marker 97, carriers vs non-carriers
[18] = PLCB1 marker 98, carriers vs non-carriers
[19] = PLCB1 marker 99, carriers vs non-carriers
[20] = PLCB1 marker 100, carriers vs non-carriers
[21] = PLCB1 marker 101, carriers vs non-carriers
[22] = PLCB1 marker 102, carriers vs non-carriers
[23] = PLCB1 marker 103, carriers vs non-carriers
[24] = PLCB1 marker 104, carriers vs non-carriers
[25] = PLCB1 marker 105, carriers vs non-carriers

Cl.N#Cc1ccc2[nH]cc(CCCCN3CCN(c4ccc5oc(C(N)=O)cc5c4)CC3)c2c1 [Vilazodone, 5-{4-[4-(5-Cyano-3-indolyl)-butyl]-1-piperazinyl}-benzofuran-2-carboxamide hydrochloride]
Response difference (Cauc. only) [1]: −6.6 | Response difference (all ethnic.) [1]: −5.1 | Response difference (Cauc. only) [2]: −5.9 | Response difference (all ethnic.) [2]: −4.3 | Response difference (Cauc. only) [3]: −6 | Response difference (all ethnic.) [3]: −4.3 | Response difference (Cauc. only) [4]: −6 | Response difference (all ethnic.) [4]: −4.3 | Response difference (Cauc. only) [5]: −5.4 | Response difference (all ethnic.) [5]: −3.9 | Response difference (Cauc. only) [6]: −6.4 | Response difference (all ethnic.) [6]: −5.1 | Response difference (Cauc. only) [7]: −5.8 | Response difference (all ethnic.) [7]: −4.6 | Response difference (Cauc. only) [8]: −6.4 | Response difference (all ethnic.) [8]: −5.2 | Response difference (Cauc. only) [9]: −7 | Response difference (all ethnic.) [9]: −5.6 | Response difference (Cauc. only) [10]: −7 | Response difference (all ethnic.) [10]: −5.6 | Response difference (Cauc. only) [11]: −7 | Response difference (all ethnic.) [11]: −5.6 | Response difference (Cauc. only) [12]: −7 | Response difference (all ethnic.) [12]: −5.6 | Response difference (Cauc. only) [13]: −7 | Response difference (all ethnic.) [13]: −5.6 | Response difference (Cauc. only) [14]: −7 | Response difference (all ethnic.) [14]: −5.6 | Response difference (Cauc. only) [15]: −7 | Response difference (all ethnic.) [15]: −5.6 | Response difference (Cauc. only) [16]: −7.3 | Response difference (all ethnic.) [16]: −4.2 | Response difference (Cauc. only) [17]: −7.3 | Response difference (all ethnic.) [17]: −4.2 | Response difference (Cauc. only) [18]: −7.3 | Response difference (all ethnic.) [18]: −4.2 | Response difference (Cauc. only) [19]: −7.3 | Response difference (all ethnic.) [19]: −4.2 | Response difference (Cauc. only) [20]: −7.3 | Response difference (all ethnic.) [20]: −4.2 | Response difference (Cauc. only) [21]: −6 | Response difference (all ethnic.) [21]: −4.7 | Response difference (Cauc. only) [22]: −6 | Response difference (all ethnic.) [22]: −4.7 | Response difference (Cauc. only) [23]: −6.6 | Response difference (all ethnic.) [23]: −4.6 | Response difference (Cauc. only) [24]: −6.6 | Response difference (all ethnic.) [24]: −4.6 | Response difference (Cauc. only) [25]: −6.6 | Response difference (all ethnic.) [25]: −4.6
